Values after ≈ are worked out from the molar mass of the structure shown.
Tests used:
[1] = test system: Poliovirus type 1 (Polio 1, Sabin); test: microbe, parasite or virus in culture; format: cell-based
[2] = test system: echovirus type 11 (Echo 11, Gregory); test: In vitro anti-picornavirus activity (MTT), Echo 11; format: cell-based; conditions: HeLa-S3 cells, MTT method, 37° C.
[3] = test system: coxsackievirus type A7 (CA7); test: In vitro anti-picornavirus activity (MTT), CA7; format: cell-based; conditions: HeLa-S3 cells, MTT method, 37° C.
[4] = test system: coxsackievirus type B4 (CB4,JVB); test: In vitro anti-picornavirus activity (MTT), CB4; format: cell-based; conditions: HeLa cells, MTT method, 37° C.
HRV1A (E28) = test: Anti-rhinovirus activity (MTT), HRV1A; format: cell-based, human rhinovirus; conditions: Table VII, rhinovirus serotype HRV1A, same method as above
[5] = test system: human rhinovirus type 1B (HRV 1B, B632); test: Anti-rhinovirus activity (MTT), HRV1B; format: cell-based; set-up: Anti-Rhinovirus activity, HRV1B: unit not given here
HRV 2 (HGP) = test: Anti-rhinovirus activity (MTT), HRV2; format: cell-based, human rhinovirus; set-up: Anti-Rhinovirus activity, HRV2: unit not given here
HRV14 (1059) = test: Anti-rhinovirus activity (MTT), HRV14; format: cell-based, human rhinovirus; conditions: Table VII, rhinovirus serotype HRV14
HRV 89 (41617-Gallo) = test: Anti-rhinovirus activity (MTT), HRV89; format: cell-based, human rhinovirus; set-up: Anti-Rhinovirus activity, HRV89: unit not given here
HRV3(FEB) = test: Anti-rhinovirus spectrum (MTT), HRV3; format: cell-based, human rhinovirus; conditions: Table VII, rhinovirus serotype HRV3
HRV5 = test: Anti-rhinovirus spectrum (MTT), HRV5; format: cell-based, human rhinovirus; conditions: Table VII, rhinovirus serotype HRV5
HRV8(MRH) = test: Anti-rhinovirus spectrum (MTT), HRV8; format: cell-based, human rhinovirus; conditions: Table VII, rhinovirus serotype HRV8
HRV10 (204-CV14) = test: Anti-rhinovirus spectrum (MTT), HRV10; format: cell-based, human rhinovirus; conditions: Table VII, rhinovirus serotype HRV10
HRV13 (353) = test: Anti-rhinovirus spectrum (MTT), HRV13; format: cell-based, human rhinovirus; conditions: Table VII, rhinovirus serotype HRV13
HRV16 (11757) = test: Anti-rhinovirus spectrum (MTT), HRV16; format: cell-based, human rhinovirus; conditions: Table VII, rhinovirus serotype HRV16
HRV21 (47) = test: Anti-rhinovirus spectrum (MTT), HRV21; format: cell-based, human rhinovirus; conditions: Table VII, rhinovirus serotype HRV21
HRV29 (5582) = test: Anti-rhinovirus spectrum (MTT), HRV29; format: cell-based, human rhinovirus; conditions: Table VII, rhinovirus serotype HRV29
HRV31 (41F) = test: Anti-rhinovirus spectrum (MTT), HRV31; format: cell-based, human rhinovirus; conditions: Table VII, rhinovirus serotype HRV31
HRV32 (363) = test: Anti-rhinovirus spectrum (MTT), HRV32; format: cell-based, human rhinovirus; conditions: Table VII, rhinovirus serotype HRV32
HRV33 (1200) = test: Anti-rhinovirus spectrum (MTT), HRV33; format: cell-based, human rhinovirus; conditions: Table VII, rhinovirus serotype HRV33
HRV36 (342H) = test: Anti-rhinovirus spectrum (MTT), HRV36; format: cell-based, human rhinovirus; conditions: Table VII, rhinovirus serotype HRV36
HRV39 (209) = test: Anti-rhinovirus spectrum (MTT), HRV39; format: cell-based, human rhinovirus; conditions: Table VII, rhinovirus serotype HRV39
HRV41 (56110) = test: Anti-rhinovirus spectrum (MTT), HRV41; format: cell-based, human rhinovirus; conditions: Table VII, rhinovirus serotype HRV41
HRV50(A2#58) = test: Anti-rhinovirus spectrum (MTT), HRV50; format: cell-based, human rhinovirus; conditions: Table VII, rhinovirus serotype HRV50
HRV61 (6669-CV39) = test: Anti-rhinovirus spectrum (MTT), HRV61; format: cell-based, human rhinovirus; conditions: Table VII, rhinovirus serotype HRV61
[6] = test system: clinical isolate (89229T); test: microbe, parasite or virus in culture; format: cell-based, human rhinovirus; conditions: Table VII, clinical isolate (89229T)
[7] = test system: Human rotavirus (HROV, Odelia); test: In vitro anti-rotavirus activity (plaque reduction), HRoV; format: cell-based; conditions: MA104 cells, four days after infection
Description: (§1) Human rotavirus (HROV, Odelia) and simian rotavirus (SRoV, SA11) were used in this experiment. Confluent monolayers of MA104 cells in 6-well multiplate were washed with Eagle MEM containing 0.5 μg/ml of trypsin and were infected with tripsinized-rotavirus (treated with 10 μg/ml of tripsin at 37° C. for 1.5 hr) at 50 PFU per well. After 1 hr of adsorption, the virus inoculum was removed, and the monolayers were washed with Eagle MEM containing 0.5 μg/ml of trypsin and overlaid with Eagle MEM containing 1 μg/ml of trypsin, 0.6% purified agar and the test compounds at various concentrations. The cultures were incubated at 37° C. for 3 days and same overlay medium was added. Four days after infection, the cell sheets were washed with PBS and stained with 1.3% crystal violet in 95% ethanol. The antiviral efficacy of the compounds was expressed as the IC50, that is the concentration of the compounds required to reduce the number of plaques to 50% in the control (virus-infected, but […]).

[8] = test system: simian rotavirus (SRoV, SA11); test: In vitro anti-rotavirus activity (plaque reduction), SRoV; format: cell-based; conditions: MA104 cells, four days after infection
Description: as §1

HeLa cells = test: Cytotoxicity (MTT, without virus), HeLa; conditions: HeLa, no virus, incubated for 4 days
HeLa-S3 cells = test: Cytotoxicity (MTT, without virus), HeLa-S3; conditions: HeLa-S3, no virus, incubated for 4 days
HeLa (Ohio strain)cells = test: Cytotoxicity (MTT, without virus), HeLa(Ohio); conditions: HeLa(Ohio), no virus, incubated for 4 days
[9] = HeLa (Ohio strain) cells, MTT method, 33° C.

Compound: Cc1c(-c2ccccc2)n(-c2ccc(F)cc2)c2ccc(C(C)C)cc2c1=O [Compound A323]
- IC50 Polio 1 [1]: >2 µg/mL
- IC50 Echo 11 [2]: >2 µg/mL
- IC50 CA7 [3]: >2 µg/mL
- IC50 CB4 [4]: >2 µg/mL
- Anti-Rhinovirus activity, HRV1A (HRV1A (E28)): >2.0
- IC50 HRV1B [5, 9]: 0.27 µg/mL (≈ 0.727 µM)
- Anti-Rhinovirus activity, HRV1B ([5]; Table VII, rhinovirus serotype HRV1B): 0.27
- IC50 HRV2 (HRV 2 (HGP); [9]): 0.038 µg/mL (≈ 0.102 µM)
- Anti-Rhinovirus activity, HRV2 (HRV 2 (HGP); Table VII, rhinovirus serotype HRV2): 0.038
- Anti-Rhinovirus activity, HRV14 (HRV14 (1059)): >2.0
- IC50 HRV89 (HRV 89 (41617-Gallo); [9]): 0.011 µg/mL (≈ 0.0296 µM)
- Anti-Rhinovirus activity, HRV89 (HRV 89 (41617-Gallo); Table VII, rhinovirus serotype HRV89): 0.011
- Anti-Rhinovirus activity, HRV3 (HRV3(FEB)): >2.0
- Anti-Rhinovirus activity, HRV5 (HRV5): >2.0
- Anti-Rhinovirus activity, HRV8 (HRV8(MRH)): >2.0
- Anti-Rhinovirus activity, HRV10 (HRV10 (204-CV14)): 0.032
- Anti-Rhinovirus activity, HRV13 (HRV13 (353)): 0.12
- Anti-Rhinovirus activity, HRV16 (HRV16 (11757)): 0.033
- Anti-Rhinovirus activity, HRV21 (HRV21 (47)): 0.067
- Anti-Rhinovirus activity, HRV29 (HRV29 (5582)): 0.11
- Anti-Rhinovirus activity, HRV31 (HRV31 (41F)): 0.088
- Anti-Rhinovirus activity, HRV32 (HRV32 (363)): 0.077
- Anti-Rhinovirus activity, HRV33 (HRV33 (1200)): 0.30
- Anti-Rhinovirus activity, HRV36 (HRV36 (342H)): 0.13
- Anti-Rhinovirus activity, HRV39 (HRV39 (209)): 0.018
- Anti-Rhinovirus activity, HRV41 (HRV41 (56110)): 0.058
- Anti-Rhinovirus activity, HRV50 (HRV50(A2#58)): 0.038
- Anti-Rhinovirus activity, HRV61 (HRV61 (6669-CV39)): 0.30
- Anti-rhinovirus activity Clinically isolated strain [6]: 0.030
- Anti-rotavirus activity IC50 HRoV(Odelia) [7]: 1.30 µg/mL
- Anti-rotavirus activity IC50 SRoV(SA11) [8]: 0.90 µg/mL
- Cytotoxicity CC50 HeLa (HeLa cells): >2 µg/mL
- Cytotoxicity CC50 HeLa-S3 (HeLa-S3 cells): >2 µg/mL
- Cytotoxicity CC50 HeLa(Ohio) (HeLa (Ohio strain)cells): >2 µg/mL

Reference: patent US7109338B2, “1,2-disubstituted 1,4-dihydro-4-oxoquinoline compounds” (priority 1999, dated 2006)
